Experiments:
[1] = test system: HCT-116; test: Cytotoxicity against human HCT-116 cells assessed as inhibition of cell growth incubated for 72 hrs by MTT assay; format: functional, cell-based; details: HCT-116, 72 h
[2] = test system: A549; test: Cytotoxicity against human A549 cells assessed as inhibition of cell growth incubated for 72 hrs by MTT assay; format: functional, cell-based; details: A549, 72 h
[3] = Cytotoxicity against cisplatin-sensitive mouse MB49 cells assessed as inhibition of cell growth incubated for 72 hrs by MTT assay; format: functional, cell-based; details: MB49, 72 h
[4] = Cytotoxicity against cisplatin-resistant mouse MB49 cells assessed as inhibition of cell growth incubated for 72 hrs by MTT assay; format: functional, cell-based; details: MB49, 72 h
[5] = test system: A549; test: Induction of apoptosis in human A549 cells assessed as caspase 3/7 positive cells at 31.6 uM incubated for 48 hrs by […] staining and caspase 3/7 reagent based analysis relative to control; format: functional
[6] = test system: A549; test: Induction of apoptosis in human A549 cells assessed as caspase 3/7 positive cells at 100 uM incubated for 48 hrs by […] staining and caspase 3/7 reagent based analysis relative to control; format: functional
[7] = Induction of caspase3/7-mediated apoptosis in human A549 cells assessed as increase in mean fluorescence intensity at 10 to 100 uM incubated for 48 hrs; format: functional; details: dose 10-100 µM

Compound	IC50 [1] [µM]	IC50 [2] [µM]	IC50 [3] [µM]	IC50 [4] [µM]	Activity [5] [%]	Activity [6] [%]	Activity [7]
CC(C)[C@@H](C)/C=C/[C@@H](C)[C@H]1CC[C@]2(C3=CC(=O)[C@@H]4C[C@H](O)CC[C@]4(C)C3=O)OC(=O)C[C@]12C	57.8	> 100	> 100	> 100	–	–	–
CC(C)[C@@H](C)/C=C/[C@@H](C)[C@H]1CC[C@]2(C3=C[C@H](O)C4=C[C@@H](O)CC[C@]4(C)C3=O)OC(=O)C[C@]12C	4.8	5.3	12.7	12.7	21.1	81.9	2000
CC(C)[C@@H](C)/C=C/[C@@H](C)[C@H]1CC[C@]2(C3=CC(=O)C4=CC(=O)CC[C@]4(C)C3=O)OC(=O)C[C@]12C	45	54.3	53.6	54.3	–	–	–
CC(C)[C@@H](C)/C=C/[C@@H](C)[C@H]1CC[C@]2(C3=C[C@H](O)[C@@H]4C[C@H](O)CC[C@]4(C)C3=O)OC(=O)C[C@]12C	14.6	19.7	34.1	14.2	–	–	–
